Test results published in patent US20080045537A1, “Chemical Compounds” (priority 2004, published 2008).
Like-named read-outs stand apart in the source and are kept apart here.

Columns and labels:
Assay type in all cases: cell-based
human CXCR4 = biological target: T1, human CXCR4 (Homo sapiens, UniProt P61073); assay: Functional FLIPR assay (block of SDF-1 alpha induced [Ca2+]i change); settings: HEK-293 cells with human CXCR4 BacMam and Gqi5 BacMam; antagonism of SDF-1 alpha; read-out: Functional assay (pIC50) (converted)
T1 construct: expressed in transfected cells; host or cells: HEK-293 cells (stably expressing human macrophage scavenging receptor) transduced with human CXCR4 BacMam and Gqi5 BacMam baculoviruses
T1 sequence (P61073 whole entry): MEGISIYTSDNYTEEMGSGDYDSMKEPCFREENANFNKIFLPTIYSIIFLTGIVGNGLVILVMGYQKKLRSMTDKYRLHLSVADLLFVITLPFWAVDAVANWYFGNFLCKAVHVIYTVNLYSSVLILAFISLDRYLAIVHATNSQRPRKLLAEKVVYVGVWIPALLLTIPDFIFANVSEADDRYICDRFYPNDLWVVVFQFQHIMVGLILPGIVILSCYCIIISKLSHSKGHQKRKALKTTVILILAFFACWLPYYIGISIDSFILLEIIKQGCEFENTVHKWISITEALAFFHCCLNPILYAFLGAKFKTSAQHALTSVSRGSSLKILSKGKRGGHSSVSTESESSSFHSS
Description: Human embryonic kidney (HEK-293) cells were maintained and harvested as described above. Cells were plated in 96-well, black clear bottom, poly-lysine coated plates at a concentration of 40,000 cells per well in a final volume of 100 ul containing human CXCR4BacMam (MOI=25) and Gqi5 BacMam (MOI=12.5). The cells were incubated at 37° C., 5% CO2, 95% humidity for 24 h to allow for protein expression.
After the required incubation time the cells were washed once with 50 ul of fresh serum-free DMEM/F12 media containing probenicid. 50 ul of dye solution was then added to the cells (Calcium Plus Assay Kit Dye; Molecular Devices) was dissolved in 200 ml of the above probenicid/BSA containing media and incubated for 1 h. Cell plates were transferred to a Fluorometric Imaging Plate Reader (FLIPR). Upon addition the effect of the compounds on the change in [Ca^2+]i was examined to determine if the compounds were agonists or antagonists (ability to block SDF-1 alpha activity) at the CXCR4 receptor. IC50 values are determined and pKb values are calculated using the Leff and Dougall equation: KB=IC50/((2+([agonist]/EC50ˆb)ˆ1/b−1) Where IC50 is that defined by the antagonist concentration-response curve [agonist] is the EC80 concentration of agonist used EC50 is that defined by the agonist concentration-response curve b is the slope of the agonist concentration-response curve.

[1] = tested on: HIV-1 gp160 (from the HXB2 HIV strain); assay: Cell/cell fusion assay (HEK-293 expressing HIV-1 tat, rev, gp160 with HOS hCXCR4/hCCR5/hCD4/pHIV-LTR-luciferase cells); settings: Human immunodeficiency virus 1, HXB2, HEK293, 24 h, read-out: Fusion assay (pIC50), luciferase readout after 24 h (converted)
From the text: The complete coding sequences of HIV-1 tat (GenBank Accession No. X07861) and rev (GenBank Accession No. M34378) were cloned into pcDNA3.1 expression vectors containing G418 and hygromycin resistance genes, respectively. The complete coding sequence of the HIV-1 (HXB2 strain) gp160 envelope gene (nucleotide bases 6225-8795 of GenBank Accession No. K03455) was cloned into plasmid pCRII-TOPO. The three HIV genes were additionally inserted into the baculovirus shuttle vector, pFastBacMam1, under the transcriptional control of the CMV promoter. A construction of the pHIV-I LTR containing mutated NFkB sequences linked to the luciferase reporter gene was prepared by digesting pcDNA3.1, containing the G418 resistance gene, with Nru I and Bam HI to remove the CMV promoter. LTR-luc was then cloned into the Nru I/Bam HI sites of the plasmid vector. Plasmid preparations were performed after the plasmids were amplified in Escherichia coli strain DH5-alpha. The fidelity of the inserted sequences was confirmed by double-strand nucleotide sequencing using an ABI Prism Model 377 automated sequencer.
Recombinant BacMam baculoviruses were constructed from pFastBacMam shuttle plasmids by using the bacterial cell-based Bac-to-Bac system. Viruses were propagated in Sf9 (Spodoptera frugiperda) cells cultured in Hink's TNM-FH Insect media supplemented with 10% (v/v) fetal bovine serum and 0.1% (v/v) pluronic F-68 according to established protocols.
Human osteosarcoma (HOS) cells that naturally express human CXCR4 were transfected with human CCR5, human CD4 and the pHIV-LTR-luciferase plasmid using FuGENE 6 transfection reagent. Single cells were isolated and grown under selection condition in order to generate a stable HOS (hCXCR4/hCCR5/hCD4/pHIV-LTR-luciferase) clonal cell line. The cells were maintained in Dulbeccos modified Eagles media supplemented with 10% fetal calf serum (FCS), G418 (400 ug/ml), puromycin (1 ug/ml), mycophenolic acid (40 ug/ml), xanthine (250 ug/ml) and hypoxanthine (13.5 ug/ml) to maintain a selection pressure for cells expressing the LTR-luciferase, hCCR5 and hCD4, respectively. Human embryonic kidney (HEK-293) cells stably transfected to express the human macrophage scavenging receptor (Class A, type 1; GenBank Accession No. D90187), were maintained in DMEM/F-12 media (1:1) supplemented with 10% FCS and 1.5 ug/ml puromycin. The expression of this receptor by the HEK-293 cells enhances their ability to stick to tissue culture treated plasticware.
HEK-293 cells were harvested using enzyme-free cell dissociation buffer. The cells were resuspended in DMEM/F-12 media supplemented with 10% FCS and 1.5 ug/ml and counted. Tranductions were performed by direct addition of BacMam baculovirus containing insect cell media to cells. The cells were simultaneously transduced with BacMam baculovirus expressing HIV-1 tat, HIV-1 rev and HIV-1 gp160 (from the HXB2 HIV strain). Routinely an MOI of 10 of each virus was added to the media containing the cells. 2 mM butyric acid was also added to the cells at this stage to increase protein expression in transduced cells. The cells were subsequently mixed and seeded into a flask at 30 million cells per T225. The cells were incubated at 37° C., 5% CO2, 95% humidity for 24 h to allow for protein expression.
HEK and HOS cells were harvested in DMEM/F-12 media containing 2% FCS and DMEM media containing 2% FCS, respectively, with no selection agents added. Compounds were plated as 1 ul spots in 100% DMSO on a 96-well CulturPlate plates. HOS cells (50 ul) were added first to the wells, followed immediately by the HEK cells (50 ul). The final concentration of each cell type was 20,000 cells per well. Following these additions, the cells were returned to a tissue culture incubator (37° C.; 5% CO2/95% air) for an additional 24 h.
Following the 24 h incubation, total cellular luciferase activity was measured using the LucLite Plus assay kit (Packard, Meridien, Conn.). […]

[2] = Compound cytotoxicity in the absence of virus addition (CellTiter-Glo); settings: human; non-infected HOS cultures; read-out: Cytotox (pIC50) (converted)
Description: Compounds were profiled against two HIV-1 viruses, the M-tropic (CCR5 utilizing) Ba-L strain and the T-tropic (CXCR4 utilizing) IIIB strain. Both viruses were propagated in human peripheral blood lymphocytes. Compounds were tested for there ability to block infection of the HOS cell line (expressing hCXCR4/hCCR5/hCD4/pHIV-LTR-luciferase) by either HIV-1 Ba-L or HIV-1 IIIB. Compound cytotoxicity was also examined in the absence of virus addition.
HOS cells (expressing hCXCR4/hCCR5/hCD4/pHIV-LTR-luciferase) were harvested and diluted in Dulbeccos modified Eagles media supplemented with 2% FCS and non-essential amino acid to a concentration of 60,000 cells/ml. The cells were plated into 96-well plates (100 ul per well) and the plates were placed in a tissue culture incubator (37° C.; 5% CO2/95% air) for a period of 24 h.
Subsequently, 50 ul of the desired drug solution (4 times the final concentration) was added to each well and the plates were returned to the tissue culture incubator (37° C.; 5% CO2/95% air) for 1 h. Following this incubation 50 ul of diluted virus was added to each well (approximately 2 million RLU per well of virus). The plates were returned to the tissue culture incubator (37° C.; 5% CO2/95% air) and were incubated for a further 96 h.
Following this incubation the endpoint for the virally infected cultures was quantified following addition of Steady-Glo Luciferase assay system reagent (Promega, Madison, Wis.). Cell viability or non-infected cultures was measured using a CellTiter-Glo luminescent cell viability assay system (Promega, Madison, Wis.). All luminescent readouts are performed on a Topcount luminescence detector (Packard, Meridien, Conn.).

[3] = tested on: HIV-1 IIIB (T-tropic, CXCR4 utilizing); assay: HOS HIV-1 infectivity assay
In short: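 HOS hCXCR4/hCCR5/hCD4/pHIV-LTR-luc cells, DMEM 2% FCS, 24 h preculture; cpd 1 h pre-virus; HIV-1 (PBL-grown) ~2 million RLU/well; 96 h, 37 °C. Readout: Steady-Glo luciferase (infected), CellTiter-Glo (no virus).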

[4] = Human immunodeficiency virus 1, HIV-1 IIIB, HOS cells, 96 h, luciferase readout, read-out: HOS (3B)
[5] = Human immunodeficiency virus 1, IIIB, as determined by the infectivity assay, strain not stated in Table 2, read-out: Activity Level

Row | Structure (SMILES) | IC50 (human CXCR4) [µM] | IC50 [1] [µM] | IC50 at 96 h [2] [µM] | IC50 [3, 4] [µM] | IC50 ([3]; as determined by the infectivity assay, strain not stated in Table 2, read-out: Activity Level) [µM] | IC50 [3, 5] [µM]
1 | CN(Cc1nc2c(C(=O)N3CCC(N)C3)cccc2[nH]1)C1CCCc2cccnc21 (stereo not shown) [Example 31, N-({4-[(3-Amino-1-pyrrolidinyl)carbonyl]-1H-benzimidazol-2-yl}methyl)-N-methyl-5,6,7,8-tetrahydro-8-quinolinamine] | 0.0123 | 0.049 | > 100 | 0.022 | < 0.1 | –
2 | CN(Cc1nc2cc(C(=O)NCc3ccc(CN)cc3)ccc2[nH]1)C1CCCc2cccnc21 (stereo not shown) [Example 20, N-{[4-(Aminomethyl)phenyl]methyl}-2-{[methyl(5,6,7,8-tetrahydro-8-quinolinyl)amino]methyl}-1H-benzimidazole-5-carboxamide] | > 100 | 5.62 | > 100 | 2.35 | – | 0.5 to 10
3 | CN(Cc1nc2c(N3CCNCC3)cccc2[nH]1)C1CCCc2cccnc21 (stereo not shown) [Example 34, N-methyl-N-{[4-(1-piperazinyl)-1H-benzimidazol-2-yl]-methyl}-5,6,7,8-tetrahydro-8-quinolinamine] | 0.00813 | 0.0055 | > 100 | 0.0062 | – | –
4 | CN(Cc1nc2cc(CNCC3CCNCC3)ccc2[nH]1)C1CCCc2cccnc21 (stereo not shown) [Example 19, N-Methyl-N-[(5-{[(4-piperidinylmethyl)amino]methyl}-1H-benzimidazol-2-yl)methyl]-5,6,7,8-tetrahydro-8-quinolinamine] | 0.251 | 0.501 | > 100 | 0.167 | – | 0.1 to 0.5
5 | CN(Cc1nc2c(C(=O)NCCc3c[nH]cn3)cccc2n1C)C1CCCc2cccnc21 (stereo not shown) [Example 9, N-[2-(1H-Imidazol-4-yl)ethyl]-1-methyl-2-{[methyl(5,6,7,8-tetrahydro-8-quinolinyl)amino]methyl}-1H-benzimidazole-4-carboxamide] | 0.0912 | 0.0759 | > 100 | 0.056 | – | < 0.1
6 | CN(Cc1nc2cc(CNCCCN)ccc2[nH]1)C1CCCc2cccnc21 (stereo not shown) [Example 18, N-[(2-{[Methyl(5,6,7,8-tetrahydro-8-quinolinyl)amino]methyl}-1H-benzimidazol-5-yl)methyl]-1,3-propanediamine] | 0.151 | 0.468 | > 100 | 0.16 | – | 0.1 to 0.5
7 | CN(Cc1nc2c(CN3CCNCC3)cccc2[nH]1)C1CCCc2cccnc21 (stereo not shown) [Example 33, N-Methyl-N-{[4-(1-piperazinylmethyl)-1H-benzimidazol-2-yl]methyl}-5,6,7,8-tetrahydro-8-quinolinamine] | 0.0151 | 0.162 | > 100 | 0.013 | – | < 0.1
8 | CN(Cc1nc2cccc(C(=O)NCCc3c[nH]cn3)c2n1C)C1CCCc2cccnc21 (stereo not shown) [Example 7, N-[2-(1H-Imidazol-4-yl)ethyl]-1-methyl-2-{[methyl(5,6,7,8-tetrahydro-8-quinolinyl)amino]methyl}-1H-benzimidazole-7-carboxamide] | 0.00851 | 0.055 | > 100 | 0.008 | – | < 0.1
9 | CCN(Cc1nc2cc(C(=O)NCCc3cnc[nH]3)ccc2[nH]1)C1CCCc2cccnc21 (stereo not shown) [Example 12, 2-{[Ethyl(5,6,7,8-tetrahydro-8-quinolinyl)amino]methyl}-N-[2-(1H-imidazol-4-yl)ethyl]-1H-benzimidazole-5-carboxamide] | 0.447 | 1.17 | > 100 | 0.179 | – | 0.1 to 0.5
10 | CCN(Cc1nc2cc(C(=O)NCCCN)ccc2[nH]1)C1CCCc2cccnc21 (stereo not shown) [Example 13, N-(3-Aminopropyl)-2-{[ethyl(5,6,7,8-tetrahydro-8-quinolinyl)amino]methyl}-1H-benzimidazole-5-carboxamide] | 0.417 | 1.74 | > 100 | 0.594 | – | 0.5 to 10
